Blank lines part the entries; values can stand above or below the compound they belong to.
Assays:
[1] = in particular moderate or severe renal impairment, or ESRD; cited from earlier work
[2] = in vivo; cited from earlier work
[3] = Phase 1 trial: PK of a single subcutaneous dose of 10 mg glepaglutide in subjects with severe renal impairment/ESRD vs normal renal function; assay type: in vivo, human
Procedure: The study was designed as a two-stage design, open-label, multi-center, non-randomized trial evaluating the PK of a single, subcutaneous dose of 10 mg glepaglutide in subjects with varying degrees of renal function. The renal function was calculated by the estimated glomerular filtration rate (eGFR) according to the Modification of Diet in Renal Disease (MDRD) equation.
Sixteen Caucasian subjects were enrolled, 4 with end stage renal disease (ESRD) not on dialysis (eGFR<15 mL/min), 4 with severe renal impairment (eGFR<30 mL/min) and 8 matching controls with normal renal function (eGFR>90 mL/min) (Table 1). Demographics, except eGFR, was similar across groups (Table 1).
Glepaglutide (ZP1848, 10 mg) was provided in a single-use vial containing 1 mL (an extractable volume of 0.5 mL) of a clear, colourless solution for subcutaneous injection, with a concentration of 20 mg/mL glepaglutide.
PK-blood samples were collected over a 14 day period following a single dose of 10 mg glepaglutide in the abdomen. The PK-samples were analyzed for glepaglutide, ZP2469 and ZP2711 using a GLP-validated LC/MS/MS assay.
The primary PK parameters were area under the curve between dose and last measurable concentration (AUCt), extrapolated to infinity (AUCinf) and calculated from 0 to 168 hours (AUC0-168) and the maximum plasma concentration (Cmax), which were computed for glepaglutide, ZP2469, ZP2711. A constructed analyte “glepaglutide-total” (glepaglutide+ZP2469+ZP2711) was used for the primary endpoint, and analysed using a non-compartmental approach.

Compound: CC[C@H](C)[C@H](NC(=O)[C@H](Cc1ccccc1)NC(=O)[C@H](CC(=O)O)NC(=O)[C@H](CCCNC(=N)N)NC(=O)[C@H](C)NC(=O)[C@H](C)NC(=O)[C@H](CC(C)C)NC(=O)[C@H](CC(N)=O)NC(=O)[C@H](CC(=O)O)NC(=O)[C@H](CC(C)C)NC(=O)[C@@H](NC(=O)[C@@H](NC(=O)[C@H](CC(N)=O)NC(=O)[C@H](CCSC)NC(=O)[C@H](CCC(=O)O)NC(=O)[C@H](CC(=O)O)NC(=O)[C@H](CO)NC(=O)[C@H](Cc1ccccc1)NC(=O)[C@H](CO)NC(=O)CNC(=O)[C@H](CC(=O)O)NC(=O)CNC(=O)[C@@H](N)Cc1c[nH]cn1)[C@@H](C)O)[C@@H](C)CC)C(=O)N[C@@H](CC(N)=O)C(=O)N[C@@H](Cc1c[nH]c2ccccc12)C(=O)N[C@@H](CC(C)C)C(=O)N[C@H](C(=O)N[C@@H](CCC(N)=O)C(=O)N[C@H](C(=O)N[C@@H](CCCCN)C(=O)N[C@H](C(=O)N[C@H](C(=O)N[C@@H](CC(=O)O)C(=O)O)[C@@H](C)O)[C@@H](C)CC)[C@@H](C)O)[C@@H](C)CC [teduglutide]
Clearance in subjects with renal dysfunction [1]: impaired

Compound: GLP-2 [3-33]: truncated GLP-2 [3-33] (DGSFSDEMNTILDNLAARDFINWLIQTKITD; Glucagon-like peptide 2; UniProt P01275 148-178, looked up, fragment)
Half-life in humans [2]: 27 min

Clearance in patients with renal impairment ([3]; human, in vivo): cleared normally | Difference in total exposure (AUC0-168h) and peak plasma concentrations (Cmax), severe renal impairment/ESRD vs normal renal function ([3]; single SC dose): no clinically relevant difference | Difference in primary PK parameters (AUCt, AUCinf, AUC0-168, Cmax), severe renal impairment and ESRD vs healthy matched subjects ([3]; single SC dose 10 mg glepaglutide): no statistically significant differences
Compound: H-HGEGTFSSELATILDALAARDFIAWLIATKITDKKKKKK-NH2 [ZP1848]

Compound: Hy-His-Ala-Asp-Gly-Ser-Phe-Ser-Asp-Glu-Met-Asn-Thr-Ile-Leu-Asp-Asn-Leu-Ala-Ala-Arg-Asp-Phe-Ile-Asn-Trp-Leu-Ile-Gln-Thr-Lys-Ile-Thr-Asp-OH [GLP-2 [1-33]]
Half-life in humans [2]: around 7 minutes

From patent US20240091317A1, “USE OF GLP-2 ANALOGUES IN PATIENTS WITH RENAL INSUFFICIENCY” (Zealand Pharma A/S, priority 2020, published 2024)
